Some test systems named below: HCT-15 colon; MOLT-4 leukemia; ACHN renal; CCRF-CEM leukemia; RPMI-8226 leukemia; A498 renal; SF-539 CNS; COLO 205 colon; OVCAR-5 ovarian; M14 melanoma.
Assay in all cases: DTP human tumour cell line panel, 48 h

Values joined by “and” are separate entries in the source; they are usually repeats but may differ in a detail not shown here. Identical values can stand only once.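 Following 48 hours of exposure in 96-well plates, responses at five concentrations were used to interpolate endpoints linearly. Abbreviation: GI50, concentration required for 50% inhibition of growth. TGI is the concentration that stops growth completely.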 Some results are limits rather than exact numbers.

`C[C@]12CC[C@H](OCCC#N)CC1=CC[C@@H]1C2CC[C@]2(C)/C(=N/OCCC#N)CCC12` (stereo not given in full): the total growth inhibition concentration (TGI) in the experiment on HCT-15 colon, in the experiment with MOLT-4 leukemia, in the experiment with ACHN renal, in the experiment on CCRF-CEM leukemia, in the experiment with RPMI-8226 leukemia and with A498 renal was greater than 100 µM each time. The concentration for total growth inhibition (TGI) in the experiment on SF-539 CNS, in the experiment with COLO 205 colon, with OVCAR-5 ovarian and with M14 melanoma was greater than 100 µM throughout.
Regarding `CCOC(=O)NC(=O)c1cn(CCCOC(=O)CCCCCCCCCCC(=O)OCCCn2cc(C(=O)NC(=O)OCC)c(=O)n(C)c2=O)c(=O)n(C)c1=O`, the TGI in the experiment on HCT-15 colon, with MOLT-4 leukemia, in the experiment on ACHN renal, in the experiment with CCRF-CEM leukemia, in the experiment on RPMI-8226 leukemia and in the experiment on A498 renal was greater than 100 µM throughout. Moreover, the TGI with SF-539 CNS, with COLO 205 colon, in the experiment with OVCAR-5 ovarian and in the experiment with M14 melanoma was greater than 100 µM throughout.
With `O=c1[nH]ccc2nc(N3CCC(O)CC3)nc(Nc3cccc(C(F)(F)F)c3)c12`, the GI50 was 0.543 µM with HCT-15 colon; 2.24 µM in the experiment with MOLT-4 leukemia; 0.702 µM in the experiment with ACHN renal; 2.1 µM with CCRF-CEM leukemia; 2.95 µM in the experiment on RPMI-8226 leukemia; 2.5 µM with A498 renal. Further, the GI50 was 5.19 µM with SF-539 CNS, 3.08 µM with COLO 205 colon, 28.3 µM in the experiment on OVCAR-5 ovarian and 1.55 µM with M14 melanoma. Besides, the TGI was 31.6 µM in the experiment with HCT-15 colon; 7.75 µM with MOLT-4 leukemia; 84.7 µM in the experiment on ACHN renal; greater than 100 µM in the experiment on CCRF-CEM leukemia; 92 µM with RPMI-8226 leukemia; greater than 100 µM in the experiment on A498 renal. The TGI in the experiment on SF-539 CNS was determined as 38.6 µM; in the experiment on COLO 205 colon it was 14.5 µM; in the experiment on OVCAR-5 ovarian, 94.3 µM; with M14 melanoma, 8.23 µM.
With `CN(C)C1CCN(C(=O)c2ccc(NC(=O)Nc3ccc(-c4nc(N5CCOCC5)nc(N5CCOCC5)n4)cc3)cc2)CC1`, the GI50 in the experiment with HCT-15 colon is 3.08 µM and 2.19 µM; in the experiment with MOLT-4 leukemia, 0.0311 µM and 0.018 µM and 0.0772 µM; in the experiment with ACHN renal, 1.42 µM and 1.06 µM; in the experiment with CCRF-CEM leukemia, 0.0217 µM and 0.0491 µM and 0.104 µM; in the experiment on RPMI-8226 leukemia it was 0.0404 µM and 0.0615 µM and 0.0978 µM; in the experiment on A498 renal, 0.0391 µM and 0.03 µM and 0.00566 µM. The GI50 in the experiment with SF-539 CNS is < 0.0129 µM and 0.0143 µM and 0.0416 µM; in the experiment with COLO 205 colon, 0.0136 µM and 0.0334 µM and 0.012 µM; in the experiment with OVCAR-5 ovarian, 0.0167 µM and 0.0317 µM and 0.0166 µM; in the experiment with M14 melanoma, 0.23 µM and 0.144 µM and 0.0298 µM. Besides, the TGI in the experiment on HCT-15 colon is greater than 100 µM; in the experiment on ACHN renal, greater than 100 µM; in the experiment on A498 renal it was 0.282 µM and 0.154 µM and 0.0788 µM; in the experiment with COLO 205 colon, 0.155 µM and 0.545 µM and 0.188 µM; in the experiment with OVCAR-5 ovarian, 0.325 µM and 2.5 µM and 0.331 µM; with M14 melanoma, 5.24 µM and 2.5 µM and 1.17 µM.
For the compound `O=C(O)CC12C3C4C5C3C1C5C42` (stereo not given), the TGI in the experiment with HCT-15 colon, in the experiment with MOLT-4 leukemia, in the experiment with ACHN renal, in the experiment on CCRF-CEM leukemia, in the experiment with RPMI-8226 leukemia and with A498 renal was greater than 100 µM each time. Also, the TGI in the experiment with SF-539 CNS, with COLO 205 colon, with OVCAR-5 ovarian and with M14 melanoma was greater than 100 µM in each case.
Turning to `COc1ccc2c(CN3CCC[C@H]3C(=O)O)cc3cc4c(cc3c2c1)OCO4`, the GI50 in the experiment with HCT-15 colon was 19.1 µM; in the experiment with MOLT-4 leukemia, 5.33 µM; with ACHN renal, 5.97 µM; in the experiment on CCRF-CEM leukemia, 10.2 µM; in the experiment with RPMI-8226 leukemia it was 9.87 µM; with A498 renal, 11.1 µM. Besides, the GI50 is 10.7 µM in the experiment on SF-539 CNS, 6.3 µM in the experiment on COLO 205 colon, 38.1 µM in the experiment with OVCAR-5 ovarian and 13.3 µM in the experiment with M14 melanoma. Besides, the concentration for total growth inhibition (TGI) with HCT-15 colon was greater than 100 µM; in the experiment with MOLT-4 leukemia, greater than 100 µM; in the experiment with ACHN renal, greater than 100 µM; in the experiment on CCRF-CEM leukemia, greater than 100 µM; with RPMI-8226 leukemia, 39.3 µM; with A498 renal it was 26.4 µM. In addition, the TGI with SF-539 CNS is 29.5 µM; with COLO 205 colon, 46.2 µM; in the experiment on OVCAR-5 ovarian it was greater than 100 µM; in the experiment on M14 melanoma, 27.3 µM.
As for `Cc1cc2cc3c(C)cc(=O)oc3c(C)c2o1`, the TGI in the experiment on HCT-15 colon, with MOLT-4 leukemia, with ACHN renal, in the experiment with CCRF-CEM leukemia, with RPMI-8226 leukemia and with A498 renal was greater than 100 µM in each case. Besides, the TGI with SF-539 CNS, in the experiment with COLO 205 colon, with OVCAR-5 ovarian and with M14 melanoma was greater than 100 µM each time.
As for `C=C[C@H]1CCC/C=C/[C@@H]2C[C@H](O)C[C@H]2[C@H](O)/C=C/C(=O)O1`, the GI50 is 0.0325 µM with HCT-15 colon; 0.0387 µM in the experiment on MOLT-4 leukemia; 0.0404 µM in the experiment with ACHN renal; 0.0418 µM in the experiment with CCRF-CEM leukemia; 0.045 µM with RPMI-8226 leukemia; 0.015 µM with A498 renal. Moreover, the 50% growth inhibitory concentration (GI50) in the experiment with SF-539 CNS was 0.0531 µM; with COLO 205 colon, 0.0194 µM; in the experiment with OVCAR-5 ovarian, 0.0504 µM; in the experiment with M14 melanoma, 0.0353 µM. The TGI in the experiment with HCT-15 colon is greater than 34.7 µM; with MOLT-4 leukemia, greater than 100 µM; in the experiment on ACHN renal it was greater than 100 µM; in the experiment with CCRF-CEM leukemia it was greater than 100 µM; in the experiment on RPMI-8226 leukemia, greater than 100 µM; with A498 renal, 0.0528 µM. Further, the TGI with SF-539 CNS is greater than 100 µM; in the experiment with COLO 205 colon, 0.0365 µM; with OVCAR-5 ovarian, greater than 100 µM; in the experiment with M14 melanoma, greater than 100 µM.
Consider `COc1c(Cl)c2c(c(OC)c1OC)-c1ccc(SC)c(=O)cc1[C@@H](NC(=O)OCC(F)(F)F)CC2`, for which the 50% growth inhibitory concentration (GI50) in the experiment with HCT-15 colon, with MOLT-4 leukemia, in the experiment with ACHN renal, in the experiment on CCRF-CEM leukemia, in the experiment on RPMI-8226 leukemia and with A498 renal was less than 0.01 µM throughout. The GI50 in the experiment with SF-539 CNS, in the experiment on COLO 205 colon, in the experiment with OVCAR-5 ovarian and in the experiment with M14 melanoma was less than 0.01 µM each time. For the same compound, the TGI in the experiment on HCT-15 colon was greater than 61.3 µM; with MOLT-4 leukemia it was greater than 100 µM; with ACHN renal, greater than 100 µM; in the experiment on CCRF-CEM leukemia, greater than 100 µM; with RPMI-8226 leukemia, 8.21 µM; in the experiment with A498 renal, less than 0.01 µM. The total growth inhibition concentration (TGI) with SF-539 CNS is less than 0.01 µM; in the experiment with COLO 205 colon, 0.0314 µM; in the experiment on OVCAR-5 ovarian it was greater than 100 µM.

(Values after PubChem BioAssay (NCI).)
